ChEMBL document CHEMBL5724914, “Linking interpersonal differences in gut microbiota composition and drug biotransformation activity” (2024)

Tests used:
[1] = (§1) The drug is tested on WLS-073 corresponding to human gut metagenome with ENA study accession number: PRJEB37062 and ENA sample accession number: ERS12561749 for biotransformation under anaerobic condition. The drug concentrations were measured over 9 timepoints collected between 0 and 24 hours of incubation by liquid-chromatography-coupled mass spectrometry (LC–MS); conditions: 2 µM
[2] = human gut metagenome, 24 h, 2 µM
[3] = as §1, with “Z-004” for “WLS-073”, “to” for “to human gut”, “ERS12561804” for “ERS12561749”; conditions: 2 µM
[4] = as §1, with “Z-009” for “WLS-073”, “pig” for “human”, “ERS12561809” for “ERS12561749”; conditions: 2 µM
[5] = as §1, with “Z-023” for “WLS-073”, “to” for “to human gut”, “ERS12561822” for “ERS12561749”; conditions: 2 µM
[6] = human gut metagenome, 24 h, 2 µM; remark: listed apart in the source
[7] = human gut metagenome, 24 h, 2 µM; remark: listed apart in the source
[8] = as §1, with “Z-022” for “WLS-073”, “mouse” for “human”, “ERS12561821” for “ERS12561749”; conditions: 2 µM
[9] = human gut metagenome, 24 h, 2 µM; remark: listed apart in the source
[10] = as §1, with “Z-025” for “WLS-073”, “rabbit” for “human”, “ERS12561824” for “ERS12561749”; conditions: 2 µM
[11] = as §1, with “WLS-052” for “WLS-073”, “ERS12561747” for “ERS12561749”; conditions: 2 µM
[12] = as §1, with “Z-013” for “WLS-073”, “rabbit” for “human”, “ERS12561813” for “ERS12561749”; conditions: 2 µM
[13] = as §1, with “WLS-350” for “WLS-073”, “ERS12561789” for “ERS12561749”; conditions: 2 µM
[14] = human gut metagenome, 24 h, 2 µM; remark: listed apart in the source
[15] = as §1, with “Z-007” for “WLS-073”, “rat” for “human”, “ERS12561807” for “ERS12561749”; conditions: 2 µM
[16] = human gut metagenome, 24 h, 2 µM; remark: listed apart in the source
[17] = as §1, with “WLS-010” for “WLS-073”, “ERS12561743” for “ERS12561749”; conditions: 2 µM
[18] = as §1, with “Z-006” for “WLS-073”, “mouse” for “human”, “ERS12561806” for “ERS12561749”; conditions: 2 µM
[19] = human gut metagenome, 24 h, 2 µM; remark: listed apart in the source
[20] = human gut metagenome, 24 h, 2 µM; remark: listed apart in the source
Also: call rule not given here.

Bacterial Biotransformation [1] | Bacterial Biotransformation [2] | Bacterial Biotransformation [3] | Bacterial Biotransformation [4] | Bacterial Biotransformation [5] | Bacterial Biotransformation [6] | Bacterial Biotransformation [7] | Bacterial Biotransformation [8] | Bacterial Biotransformation [9] | Bacterial Biotransformation [10] | Bacterial Biotransformation [11] | Bacterial Biotransformation [12] | Bacterial Biotransformation [13] | Bacterial Biotransformation [14] | Bacterial Biotransformation [15] | Bacterial Biotransformation [16] | Bacterial Biotransformation [17] | Bacterial Biotransformation [18] | Bacterial Biotransformation [19] | Bacterial Biotransformation [20] | SMILES
Compound NOT metabolized | Compound metabolized | Compound metabolized | Compound metabolized | Compound metabolized | Compound metabolized | Compound metabolized | Compound metabolized | Compound metabolized | Compound NOT metabolized | Compound NOT metabolized | Compound NOT metabolized | Compound metabolized | Compound NOT metabolized | Compound NOT metabolized | Compound metabolized | Compound metabolized | Compound NOT metabolized | Compound metabolized | Compound metabolized | CC(C)(C)N.CCC[C@H](N[C@@H](C)C(=O)N1[C@H](C(=O)O)C[C@@H]2CCCC[C@@H]21)C(=O)OCC [PERINDOPRIL ERBUMINE]
Compound NOT metabolized | Compound NOT metabolized | Compound NOT metabolized | Compound NOT metabolized | Compound NOT metabolized | Compound NOT metabolized | Compound NOT metabolized | Compound NOT metabolized | Compound NOT metabolized | Compound NOT metabolized | Compound NOT metabolized | Compound NOT metabolized | Compound NOT metabolized | Compound metabolized | Compound NOT metabolized | Compound metabolized | Compound NOT metabolized | Compound NOT metabolized | Compound metabolized | Compound NOT metabolized | C=C[C@H]1CN2CC[C@H]1C[C@H]2[C@H](O)c1ccnc2ccc(OC)cc12.C=C[C@H]1CN2CC[C@H]1C[C@H]2[C@H](O)c1ccnc2ccc(OC)cc12.O.O.O=S(=O)(O)O [QUININE SULFATE]

SMILES | Bacterial Biotransformation [1] | Bacterial Biotransformation [2] | Bacterial Biotransformation [3] | Bacterial Biotransformation [4] | Bacterial Biotransformation [5] | Bacterial Biotransformation [6] | Bacterial Biotransformation [7] | Bacterial Biotransformation [8] | Bacterial Biotransformation [9] | Bacterial Biotransformation [10] | Bacterial Biotransformation [11] | Bacterial Biotransformation [12] | Bacterial Biotransformation [13] | Bacterial Biotransformation [14] | Bacterial Biotransformation [15] | Bacterial Biotransformation [16] | Bacterial Biotransformation [17] | Bacterial Biotransformation [18] | Bacterial Biotransformation [19] | Bacterial Biotransformation [20]
CCCN1C[C@H](CSC)C[C@@H]2c3cccc4[nH]cc(c34)C[C@H]21.CS(=O)(=O)O [PERGOLIDE MESYLATE] | Compound NOT metabolized | Compound NOT metabolized | Compound NOT metabolized | Compound NOT metabolized | Compound NOT metabolized | Compound NOT metabolized | Compound NOT metabolized | Compound NOT metabolized | Compound NOT metabolized | Compound metabolized | Compound NOT metabolized | Compound NOT metabolized | Compound NOT metabolized | Compound NOT metabolized | Compound NOT metabolized | Compound NOT metabolized | Compound NOT metabolized | Compound NOT metabolized | Compound NOT metabolized | Compound NOT metabolized
